This is an account of results in ChEMBL document CHEMBL1201862, “PubChem BioAssay data set” (2004).

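Growth conditions: 96-well plates. Treatment: test compound, 48 hours, 5 concentrations. Analysis: linear interpolation between bracketing concentrations; unreached endpoints set to highest concentration. The concentration for 50% growth inhibition is given as GI50.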 The source made the active and inactive calls. Rule as the data show it: active = GI50 up to about 1.1 µM and inactive = higher.

Some test systems named below: HOP-92; SNB-19; HCT-15; COLO 205; MOLT-4; CAKI-1; KM12; HCC 2998; RPMI-8226; SK-MEL-5; A549; UACC-62; HOP-62; NCI-H460; SK-OV-3; U-251; NCI-H522.
Common to all, as to test: growth of human tumour cells (NCI), 48 h

Take `COC(CN1C=C(Sc2ccccc2)CC1)OC`: the GI50 with HOP-92 was 26.9 µM (inactive); in the test with SNB-19, 37.8 µM (inactive); in the test on HCT-15 it was 37.7 µM; with COLO 205, 22.6 µM (inactive); with MOLT-4, 27.2 µM (inactive); with CAKI-1 it was 41.4 µM (inactive). Moreover, the GI50 with KM12 was 23.8 µM (inactive); in the test with HCC 2998, 33.9 µM (inactive); in the test on RPMI-8226, 21.7 µM (inactive); in the test with SK-MEL-5 it was 18.9 µM (inactive); in the test with A549, 30.8 µM (inactive); in the test with UACC-62, 31.8 µM (inactive). In addition, the results for the GI50 with HOP-62, in the test on NCI-H460 and in the test with SK-OV-3 were 47.3 µM (inactive), 31.7 µM (inactive) and 37 µM (inactive), respectively.
As for `COC(=O)C(Cc1cc(OC)c(OC)c(OC)c1)c1ccc(OC)cc1` (configuration not stated), the GI50 with HOP-92 was 85.9 µM (inactive); with U-251, > 100 µM (inactive); with NCI-H522, 90.4 µM (inactive); with SNB-19 it was > 100 µM (inactive); in the test with HCT-15, more than 100 µM; in the test with COLO 205, > 100 µM (inactive). The GI50 in the test on MOLT-4 was 62.7 µM (inactive); in the test on CAKI-1, > 100 µM (inactive); in the test with KM12 it was > 100 µM (inactive); in the test with RPMI-8226, 44.7 µM (inactive); with SK-MEL-5, 45 µM (inactive); with A549, > 100 µM (inactive). Also, the GI50 with UACC-62, in the test with HOP-62 and in the test with NCI-H460 was > 100 µM (inactive) in each case.
Consider `COC(=O)/C(C#N)=C1\NN=NN1c1ccc(OC)cc1`, for which the GI50 in the test on HOP-92 was > 100 µM (inactive); in the test with U-251 it was > 100 µM (inactive); with NCI-H522, > 100 µM (inactive); in the test on SNB-19 it was > 100 µM (inactive); in the test on HCT-15, more than 100 µM; in the test with COLO 205, > 100 µM (inactive). In addition, the GI50 with MOLT-4, with CAKI-1, in the test on KM12, with HCC 2998, with RPMI-8226 and with SK-MEL-5 was > 100 µM (inactive) in each case. For the same molecule, the GI50 in the test on A549, with UACC-62, with NCI-H460 and in the test on SK-OV-3 was > 100 µM (inactive) throughout.
Turning to `CC(C)(C)OC(=O)N[C@H]1CC(=O)c2ccccc2N(CC(=O)O)C1=O`, the GI50 is > 100 µM (inactive) with HOP-92; > 100 µM (inactive) in the test on NCI-H522; > 100 µM (inactive) with SNB-19; more than 100 µM in the test with HCT-15; > 100 µM (inactive) in the test with COLO 205; > 100 µM (inactive) with MOLT-4. Moreover, the GI50 with CAKI-1, in the test with KM12, in the test on HCC 2998, in the test with SK-MEL-5, with A549 and in the test with UACC-62 was > 100 µM (inactive) throughout. Further, the GI50 in the test with HOP-62, in the test on NCI-H460 and in the test with SK-OV-3 was > 100 µM (inactive) each time.
For `c1ccc2c(c1)CCC/C2=N\OCC1CO1` (configuration not stated), the GI50 with HOP-92 was 5.77 µM (inactive); in the test with U-251, > 100 µM (inactive); in the test on SNB-19, > 100 µM (inactive); with HCT-15, more than 100 µM; in the test with COLO 205 it was > 100 µM (inactive); in the test with MOLT-4, 49.3 µM (inactive). Besides, the GI50 is 36.1 µM (inactive) in the test on CAKI-1; > 100 µM (inactive) with KM12; > 100 µM (inactive) in the test on HCC 2998; 55.1 µM (inactive) in the test on RPMI-8226; > 100 µM (inactive) in the test with SK-MEL-5; > 100 µM (inactive) in the test with A549. Besides, the GI50 in the test on UACC-62 is 58.6 µM (inactive); in the test with HOP-62, > 100 µM (inactive); in the test with NCI-H460, > 100 µM (inactive); with SK-OV-3 it was > 100 µM (inactive).
